This is an account of results in patent US7470724B2, “Phosphonate compounds having immuno-modulatory activity” (Gilead Sciences, Inc., priority 2003, dated 2008).

The series in a line: Pro-drug cleavage by human PBMC extracts. The series is classed as in vitro ADME. To be noted: cleavage rate per μg protein; 30 μM substrate, pH 6.5, 37° C., 10-120 minutes; disappearance of pro-drug by HPLC at 260 nm. The method, then:
Fresh human PBMCs were obtained from patients undergoing leukophoresis; cells were shipped in plasma and processed within 26 h of draw. Purification was achieved using the Ficoll-Paque method: PBMC cells were harvested by centrifugation at 1200×g for 5 minutes and washed three times by re-suspension in RBC lysis buffer (155 mM NH4Cl, 0.1 mM EDTA, 10 mM KHCO3). Washed cells were suspended in lysis buffer (0.2×10^9 cells in 1 ml of 10 mM Tris, pH 7.4, 150 mM NaCl, 20 mM CaCl2, 1 mM DTT and 1% NP40) and incubated on ice for 20 minutes. The PBMC crude extract was centrifuged at 1000×g for 30 min to remove unlysed cells and the supernatant at 100,000×g for 1 h. The 100,000×g supernatant (PBMC Extract: P0) was harvested, snap frozen in liquid nitrogen and stored at −70° C.
Reaction mixtures contained 25 mM MesNa (pH 6.5), 100 mM NaCl, 1 mM DTT, 0.1% NP-40, 30 μM substrate, and varying amounts of enzyme in a final volume of 100 μl. The enzymatic reaction is performed at 37° C. for 10-120 minutes and stopped at 3-4 individual time points by adding 180 μl of ice cold methanol. Samples are incubated @−20° C. for 30 min, and centrifuged 13,000 RPM for 30 min (@ 4° C.). The supernatant is transferred to a 96 well plate and evaporated under vacuum using a speedvac. The precipitate is dissolved in 100 μl of 20 mM CH3COONH4+5% AcCN. The disappearance of pro-drug is measured by HPLC, monitoring at 260 nm. The specific activity of the PBMC Extract against the prodrugs tested is defined as: v (cleavage rate)/μg protein=pmoles/min/μg.

Turning to `CCOC(=O)C(C)NP(=O)(CCC(C)(C)CCn1cnc2c(=O)[nH]c(N)nc21)Oc1ccccc1` (stereo not shown) [Example 130-1], the “Human PBMC extract specific activity” value turned out to be 3.48 pmol/min/µg.
Regarding `CCOC(=O)C(C)NP(=O)(CCC(C)(C)CCn1cnc2c(=O)[nH]c(N)nc21)N[C@@H](C)C(=O)OCC` (stereo partly shown) [Example 130-2], the “Human PBMC extract specific activity” value was 0.65 pmol/min/µg.
For `CCOC(=O)C(C)NP(=O)(/C=C/c1ccccc1Cn1cnc2c(=O)[nH]c(N)nc21)Oc1ccccc1` (stereo not shown) [Example 133-1] the value was 4.9 pmol/min/µg; for `CCOC(=O)C(C)NP(=O)(/C=C/c1ccccc1Cn1cnc2c(=O)[nH]c(N)nc21)N[C@@H](C)C(=O)OCC` (stereo partly shown) [Example 133-2], 0.38 pmol/min/µg.
